ChEMBL document CHEMBL3808310, “New anti-inflammatory sterols from a gorgonian Pinnigorgia sp” (2016)

Experiments:
RAW264.7 [1] = test: Antiinflammatory activity in mouse RAW264.7 cells assessed as reduction in LPS-induced COX-2 protein levels at 10 uM preincubated for 10 mins followed by LPS challenge for 16 hrs by Western blot analysis; type: functional; design: scale not given: the % may be the effect or the level left
RAW264.7 [2] = test: Antiinflammatory activity in mouse RAW264.7 cells assessed as reduction in LPS-induced iNOS protein levels at 10 uM preincubated for 10 mins followed by LPS challenge for 16 hrs by Western blot analysis; type: functional; design: scale not given: the % may be the effect or the level left

Row | SMILES | Activity (RAW264.7 [1]) [%] | Activity (RAW264.7 [2]) [%]
1 | CC(C)[C@@H](C)/C=C/[C@@H](C)[C@H]1CC[C@H]2C3=C(CC[C@]12C)[C@@]1(C)CC[C@H](O)C[C@]12O[C@@H]2[C@@H]3O | 54 | 41.1
2 | C[C@@H]1C[C@H]2[C@@H]3CCC4=CC(=O)C=C[C@]4(C)[C@@]3(F)[C@@H](O)C[C@]2(C)[C@@]1(O)C(=O)CO [DEXAMETHASONE] | 1.7 | 9.6
3 | CC(=O)OCC[C@]1(C)[C@@H]([C@H](C)CC[C@H](C)C(C)C)CC[C@H]1C1=C[C@H](O)[C@@]2(O)C[C@@H](O)CC[C@]2(C)C1=O | 54 | 33.2
